# In US20170153257A1, “METHODS OF ESTIMATING LOGD OF TAGGED COMBINATORIAL LIBRARY COMPOUNDS” (DiCE Molecules SV, LLC, priority 2015, published 2017):
# “Also recorded” adds a separate entry of the source. Residues, ends and D or L forms follow the SMILES beside them. {Stearyl} = n-C18 stearyl group added with a stearyl phosphoramidite
# Assay: Reverse phase HPLC of steroids linked to a 220 base pair oligonucleotide (Agilent AdvanceBio Oligonucleotide column)
# Type: physicochemical
# Conditions: 220 base pair conjugates, acetonitrile/10 mM ammonium acetate gradient
# Method: HPLC purified 20 base pair single stranded oligomers operatively linked to alkyl or steroid ligands were transformed into a double stranded 220 base pair gene via polymerase chain reaction (PCR). The oligomers operatively linked to alkyl or steroid ligands and a 20 base pair reverse oligomer (1 uM) were used as PCR primers in a 100 uL reaction with 10 ng of double stranded 220 base pair gene template with 2× Fusion Flash High-Fidelity PCR Master Mix (ThermoFisher F548S). Thermocycling was performed at 98 C.° for 10 s, followed by 10 cycles of 98 C°, 1 s, 55 C°, 5 s, 72 C°, 10 s then followed by an additional protocol of 98 C.° for 10 s followed by 15 cycles of 98 C°, 1 s, 50 C°, 5 s, 72 C°, 10 s. PCR products of 220 base pair were confirmed via gel electrophoresis, purified with the QIAquick PCR Purification Kit (Qiagen) and DNA concentration was quantified via nanodrop A260 measurements.
# Compounds 18-24, prepared as described in Example 10 from the analogous 20 base pair oligomers were run on a reverse phase HPLC column, using an Agilent AdvanceBio Oligonucleotide column and acetonitrile/ammonium acetate gradient. […] Without wishing to be bound by theory, inclusion of appropriate standard compounds may provide useful surrogates of absolute values of log D. It should be also noted that chromLogD and Chrom20LogD may be determined by extensions of the above experiment.
row,Molecule,resolution / elution by reversed phase HPLC
1,acetate,eluting in the void volume

# Assay: Gel mobility on agarose gel containing 0.9% CTAB/SOS vesicles
# Type: physicochemical
# Conditions: ligand attached to 5′ end of DNA; 1.5% agarose, 0.9% (w/v) CTAB/SOS vesicles; relative to reference gels lacking vesicles; FIG. 2
# Method: Vesicles are prepared essentially as described by Pascoe et al., Electrophoresis 2003, 24: 4227-4240. Briefly, 0.45 gm of CTAB/SOS (CTAB=hexadecyltrimethylammonium bromide, Sigma catalogue #H9151; SOS=sodium octyl sulfate. Sigma catalogue #O4003)) at a ratio of 3:7 is dissolved in 1× TBE [Trisma-borate-EDTA electrophoresis buffer, Maniatis et al., p. 454] and heated to 50° C. in a water bath to assure dissolution. The solution is cooled overnight to room temperature and then filtered through a 0.2 micron filter. Vesicles prepared in this manner are reported to be stable for multiple days at room temperature.
# Low melting agarose (0.75 gm) is dissolved in 25 mL 1× TBE and placed in a water bath at 50° C. along with a separate tube of vesicles. After equilibrium is reached, the tubes are mixed in a preheated flask, gently swirled and poured into a standard horizontal mini-gel apparatus to provide a vesicle agarose gel ((standard 1× TBE, 1.5% agarose, 0.9%). […]
# FAM is 5′-6-FAM (Fluorescein). The 6-FAM moiety is comprised of a single isomer derivative of fluorescein and is the most commonly used fluorescent dye attachment for oligonucleotides and is compatible with most fluorescence detection equipment. It becomes protonated and has decreased fluorescence below pH 7; it is typically used in the pH range 7.5-8.5. […]
row,Molecule,mobility on agarose gel with vesicles
1,"Compound 1: stearyl (n-C18H37) group attached to 5′ end of DNA oligonucleotide X (SEQ. ID. No. 1) (DNA GCTCGTCGCATTCGGCACGC; DNA, 5' {Stearyl}, backbone and methylation of C not given here; further chemistry not fully specified)",greatly retard the mobility; also recorded: retarded

# Assay: Gel mobility on standard agarose gel without vesicles
# Type: physicochemical
# Conditions: ligand attached to 5′ end of DNA; 1.5% agarose, no vesicles; FIG. 1
# Method: Low melt agarose gels (standard 1× TBE, 1.5% agarose), without vesicles were prepared by conventional methods (Molecular Cloning: a Laboratory Manual, T. Maniatis, E. F. Fritsch & J. Sambrook (1982)).
# After the gels have solidified, samples are loaded, run at 100 volts, stained with ethidium bromide and photographed by standard methods (Molecular Cloning; Maniatis et al.; Cold Spring Harbor press, 1982).
row,Molecule,mobility on standard agarose gel
1,"Compound 1: stearyl (n-C18H37) group attached to 5′ end of DNA oligonucleotide X (SEQ. ID. No. 1) (DNA GCTCGTCGCATTCGGCACGC; DNA, 5' {Stearyl}, backbone and methylation of C not given here; further chemistry not fully specified)",modestly retarded

# Assay: eLogD by shake flask method in aqueous buffer/octanol mixture
# Conditions: linear peptides, N terminal acetylated and C terminal amide; pH 7.4, octanol-water
# Text: “eLogD,” as used herein, refers to a determination of LogD by shake flask method in aqueous buffer/octanol mixture.
# “LogD(pH),” as used herein, refers to a distribution of a compound between aqueous buffer and octanol at a given pH. Unless otherwise stated, the pH is assumed to be 7.4 and be written as LogD.
row,Molecule,eLogD (7.4)
1,CC(=O)N[C@@H](CCCNC(=N)N)C(=O)N[C@@H](Cc1ccccc1)C(=O)N[C@@H](CC(C)C)C(N)=O [RFL] (Ac-Arg-Phe-Leu-NH2),−1.12
2,CC(=O)N[C@@H](C)C(=O)N[C@@H](Cc1ccc(O)cc1)C(=O)N[C@@H](CC(C)C)C(N)=O [AYL] (Ac-Ala-Tyr-Leu-NH2),−0.06
3,CC[C@H](C)[C@H](NC(=O)[C@H](CCC(=O)O)NC(C)=O)C(=O)N[C@@H](Cc1ccccc1)C(N)=O [EIF (D718)] (Ac-Glu-Ile-Phe-NH2),−2.30
4,CC[C@H](C)[C@H](NC(=O)[C@H](CC(C)C)NC(=O)[C@H](CO)NC(C)=O)C(N)=O [SLI] (Ac-Ser-Leu-Ile-NH2),−0.06
5,CC[C@H](C)[C@H](NC(C)=O)C(=O)N[C@@H](CCSC)C(=O)N[C@@H](Cc1ccccc1)C(N)=O [IMF] (Ac-Ile-Met-Phe-NH2),1.25
6,Ac-ALLGF-NH2 [ALLGF],1.05
7,CC[C@H](C)[C@H](NC(C)=O)C(=O)N[C@@H](Cc1ccccc1)C(=O)N[C@@H](C)C(N)=O [IFA] (Ac-Ile-Phe-Ala-NH2),0.46
8,CC(=O)N[C@@H](Cc1c[nH]c2ccccc12)C(=O)NCC(=O)NCC(N)=O [WGG] (Ac-Trp-Gly-Gly-NH2),−0.80
9,Ac-YTGFL-NH2 [YTGFL],0.57
